Values quoted from earlier work in US6432967B1 (Mayo Foundation for Medical Education & Research, priority 1995, dated 2002).

Conditions: in vivo

Which fecal excretion does the source give for `Nc1ccc(O)c(C(=O)O)c1` [5-ASA, 5-aminosalicylate] here?
Its fecal excretion is “approximately 25%”.
